Source: PubChem BioAssay (NCI)
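The compound was tested at five concentrations on cells cultured in 96-well plates, with a 48-hour exposure period. GI50 marks 50% less growth. Definition used: TGI = concentration required for complete inhibition of growth.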

Legend:
Assay in all cases: NCI-60 cell line screen, 48 h
M14 melanoma = test system: M14 melanoma
NCI-H460 lung = test system: NCI-H460 lung
MDA-MB-231 breast = test system: MDA-MB-231 breast
CAKI-1 renal = test system: CAKI-1 renal
SF-539 CNS = test system: SF-539 CNS
786-0 renal = test system: 786-0 renal
TK-10 renal = test system: TK-10 renal
SK-OV-3 ovarian = test system: SK-OV-3 ovarian
A549 NSCLC = test system: A549 NSCLC

Compound	TGI (M14 melanoma)	TGI (NCI-H460 lung)	TGI (MDA-MB-231 breast)	TGI (CAKI-1 renal)	TGI (SF-539 CNS)	TGI (786-0 renal)	TGI (TK-10 renal)	TGI (SK-OV-3 ovarian)	TGI (A549 NSCLC)	GI50 (NCI-H460 lung)	GI50 (MDA-MB-231 breast)	GI50 (CAKI-1 renal)	GI50 (SF-539 CNS)	GI50 (TK-10 renal)	GI50 (SK-OV-3 ovarian)	GI50 (A549 NSCLC)
COC(=O)c1ccccc1C1CN=NC12Cc1ccc3c(c1C2=O)CCC3 (stereo not given)	> 100 µM	> 100 µM	> 100 µM	> 100 µM	> 100 µM	> 100 µM	> 100 µM	> 100 µM	> 100 µM	–	–	–	–	–	–	–
CC(C)(C)OC(=O)N1N=CCC1c1ccccc1 (stereo not given)	> 100 µM	> 100 µM	–	> 100 µM	> 100 µM	> 100 µM	> 100 µM	> 100 µM	> 100 µM	–	–	–	–	–	–	–
COc1cccc(CCNc2c(C#N)c3n(c4ccccc4[n+]3C)c3ncccc23)c1	3.08 µM	3.16 µM	6.89 µM	> 100 µM	3.55 µM	3.35 µM	50.1 µM	42.1 µM	4.04 µM	–	–	–	–	–	–	–
COC(=O)C12Oc3ccc(-c4ccc5c(c4O)C(O)=C4C(=O)CC(C)C(O)C4(C(=O)OC)O5)c(O)c3C(O)=C1C(=O)CC(C)C2O (stereo not given)	0.89 µM	> 100 µM	6.8 µM	4.54 µM	1.35 µM	> 32.2 µM	4.46 µM	> 82.1 µM	> 100 µM	–	–	–	–	–	–	–
C=C(C)CCC1C=[N+]([O-])OC(C)(C)C1(C)C (stereo not given)	> 100 µM	> 100 µM	> 100 µM	> 100 µM	> 100 µM	> 100 µM	> 100 µM	> 100 µM	> 100 µM	–	–	–	–	–	–	–
CCCCCCCCCCCCOC1C(COCCN2CCCCC2)OC2OC(C)(C)OC21 (stereo not given)	2.99 µM	3.48 µM	3.43 µM	3.28 µM	3.18 µM	3.11 µM	3.55 µM	15.9 µM	19.9 µM	–	–	–	–	–	–	–
COc1ccc2[nH]c3c(c2c1)CC(=O)N1CCC[C@H](C1)CC31OCCCO1	> 100 µM	> 100 µM	> 100 µM	> 100 µM	–	> 100 µM	> 100 µM	> 100 µM	> 100 µM	–	–	–	–	–	–	–
COc1ccccc1C(=O)OCC1CCCN2CCCCC12 (stereo not given)	–	52 µM	61.6 µM	> 100 µM	> 100 µM	> 100 µM	> 100 µM	> 100 µM	> 100 µM	–	–	–	–	–	–	–
COc1ccc2c3/c(=C\c4ccc(N(C)C)cc4)c4ccccc4n3[n+](C)c2c1	–	28.8 µM	0.385 µM	2.51 µM	0.748 µM	–	1.32 µM	2.57 µM	–	0.16 µM	0.0352 µM	0.723 µM	0.0409 µM	0.274 µM	1.04 µM	0.236 µM
CN(C)CCCn1c(Cn2nc3ccccc3n2)nc2cc(C(F)(F)F)ccc21	29 µM	89 µM	> 100 µM	> 100 µM	–	35.3 µM	80.6 µM	60.9 µM	> 100 µM	–	–	–	–	–	–	–
CCOS(=O)(=O)c1ccc(-c2c3nc(c(-c4ccc(S(=O)(=O)OCC)cc4)c4ccc([nH]4)c(-c4ccc(S(=O)(=O)OCC)cc4)c4nc(c(-c5ccc(S(=O)(=O)OCC)cc5)c5ccc2[nH]5)C=C4)C=C3)cc1	> 31.6 µM	> 31.6 µM	> 31.6 µM	> 31.6 µM	> 31.6 µM	> 31.6 µM	> 31.6 µM	> 31.6 µM	> 31.6 µM	–	–	–	–	–	–	–
O=c1[nH]cnc2c1cnn2Cc1cnnn1COCCO	> 100 µM	> 100 µM	> 100 µM	> 100 µM	> 100 µM	> 100 µM	> 100 µM	> 100 µM	> 100 µM	–	–	–	–	–	–	–
COc1ccc(-c2nnc3n(C)c4ccccc4n3c2=O)cc1	> 100 µM	> 100 µM	56.2 µM	> 100 µM	> 100 µM	> 100 µM	> 100 µM	–	> 100 µM	–	–	–	–	–	–	–
O=c1[nH]c2ccc(CC(=S)N3CCOCC3)cc2o1	> 100 µM	> 100 µM	> 100 µM	> 100 µM	> 100 µM	> 100 µM	> 100 µM	> 100 µM	–	–	–	–	–	–	–	–
O=C1c2cccnc2-c2nccc3c2c1nc1ccccc13	0.269 µM	0.606 µM	0.674 µM	0.467 µM	0.544 µM	2.21 µM	2.84 µM	1.19 µM	0.739 µM	–	–	–	–	–	–	–
CCN(CC)CCC1CCCCN1CC(=O)N1c2cc(Cl)ccc2NC(=O)CC1C (stereo not given)	> 100 µM	> 100 µM	> 100 µM	> 100 µM	> 100 µM	> 100 µM	> 100 µM	> 100 µM	> 100 µM	–	–	–	–	–	–	–
O=c1/c(=C/c2ccccn2)sc2nc3cc4c(cc3n12)OCCO4	> 100 µM	> 100 µM	> 100 µM	> 100 µM	–	> 100 µM	> 100 µM	> 100 µM	> 100 µM	–	–	–	–	–	–	–
COC(=O)c1c(O)ccc2c1c1c(n2Cc2cccc(C)c2)C(=O)c2ccccc2C1	47.1 µM	> 75 µM	> 75 µM	46.3 µM	61.4 µM	–	> 75 µM	> 75 µM	> 75 µM	–	–	–	–	–	–	–
COc1cccc(OC)c1NC(=O)C(=O)Nn1c(NNC(=O)c2ccncc2)nc2ccccc2c1=O	> 100 µM	> 100 µM	> 100 µM	> 100 µM	> 100 µM	> 100 µM	> 100 µM	> 100 µM	> 100 µM	–	–	–	–	–	–	–
CCN(C(=O)N[C@H](C(=O)N[C@@H](CSC)C(=O)N[C@@H](C)C(=O)OC)C(C)C)c1ccccc1	28.7 µM	32.5 µM	29 µM	36.3 µM	39.2 µM	34.2 µM	26.4 µM	30.7 µM	55 µM	–	–	–	–	–	–	–
COc1ccc2c(c1)/c(=C/C#N)c1c3ccccc3[n+](C)n21	32.4 µM	32.9 µM	64.4 µM	47.3 µM	11.8 µM	> 70.1 µM	20.7 µM	> 100 µM	16.2 µM	–	–	–	–	–	–	–
CC#CCCCC1(C)CCNC1=S (stereo not given)	> 10 µM	> 10 µM	–	–	> 10 µM	> 10 µM	> 10 µM	> 10 µM	> 10 µM	–	–	–	–	–	–	–
Cc1cc(C)n(-c2nc(C)c(CCO)c(=O)[nH]2)n1	> 100 µM	> 100 µM	> 100 µM	–	> 100 µM	> 100 µM	> 100 µM	> 100 µM	> 100 µM	–	–	–	–	–	–	–
